One assay deals with Cdc42 (Homo sapiens, UniProt P60953). The assay is described as follows: Cdc42-GTP PAK-PBD pull-down in HT29 cells. Further details: endogenous in cells; host or cells: HT29. The assay is classed as cell-based. The settings on record: HT29, 30 μM (working concentration for RhoA inhibition). From the text:
The procedure is similar to that for RhoA-GTP assay, except that Rac1-GTP and Cdc42-GTP in CRC cells were first enriched by Rac1 Pull-Down Activation Assay Biochem Kit (Cytoskeleton #BK035) instead of using the RhoA kit. The enriched Rac1-GTP and Cdc42-GTP were then immunoblotted by Rac1/2/3 antibody (CST #2465) and Cdc42 antibody (CST #2462) respectively.
GTP loading onto RhoA is critical for the protein activation and mediating downstream signals. In view of the inhibitions of GDP-to-GTP exchange of RhoA by CL16 in vitro as discussed above, effects of CL16 on RhoA biology in colorectal cancer cells were examined. In the serum starvation-re-stimulation experiment, HCT116 cells were grown in serum-free medium with CL16, Rhosin or solvent control for 24 h, followed by stimulation with 10% FBS for 10 min. The cells were then lysed and the RhoA activity was assayed by the level of RhoA-GTP, which is the active form of RhoA. […] HT29 cells were incubated with solvent vehicle, CL16 or Rhosin in complete medium for 24 h. The cells were then washed, lysed and subjected to rhotekin pull-down for blotting RhoA-GTP, or PAK-PBD pull-down for blotting Rac1-GTP and Cdc42-GTP. Confocal fluorescence images from HCT116 and HT29 cells expressing FRET RhoA-biosensor in the serum starvation-restimulation experiment were taken.

For assay [1] the following is noted: reported studies; cited from earlier work.
In the next assay the target is T1, FLAG-RhoA (Homo sapiens, UniProt P61586).
T1 construct: expressed in transfected cells; host or cells: HCT116
T1 sequence (P61586 whole entry): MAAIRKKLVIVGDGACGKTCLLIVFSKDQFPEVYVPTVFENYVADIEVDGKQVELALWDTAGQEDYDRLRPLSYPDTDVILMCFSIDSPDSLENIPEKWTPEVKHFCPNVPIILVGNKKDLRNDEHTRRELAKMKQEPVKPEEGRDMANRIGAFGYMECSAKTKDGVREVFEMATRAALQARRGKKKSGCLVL
The assay is described as follows: CL16-alkyne labeling of FLAG-RhoA in HCT116 cells (anti-FLAG IP, CuAAC, in-gel fluorescence). The assay is classed as cell-based. The settings on record: after immunoprecipitation and CuAAC. On the procedure:
HCT116 cells transiently expressing FLAG-RhoA were pre-treated with solvent vehicle or CL16 for 2 h, followed by the incubation with CL16-alkyne in complete medium for another 2 h. The cells were then lysed and subjected to immunoprecipitation by anti-FLAG beads. The enriched proteins were reacted with rhodamine azide through copper-catalyzed azide-alkyne cycloaddition (CuAAC), boiled with sampling buffer and separated by SDS-PAGE. The protein bands were then visualized by their in-gel fluorescence or blotted for RhoA. […] HCT116 cells were pre-treated with solvent vehicle or CL16 for 2 h, followed by the incubation with CL16-alkyne in complete medium for another 2 h. The cells were then lysed, reacted with rhodamine azide through CuAAC, boiled with sampling buffer, separated by SDS-PAGE and imaged. […]
To identify protein target and any off-targets of CL16 in CRCs, a molecular probe of CL16, CL16-alkyne (FIG. 6A), was synthesized. […] The protein bands were then visualized by their in-gel fluorescence or blotted for RhoA. […] The probe-labeled proteins were installed with rhodamine through CuAAC, and visualized by their in-gel fluorescence after SDS-PAGE. A protein band with strong fluorescence was found at −22 kDa in the sample incubated with CL16-alkyne only, in line with the molecular weight of RhoA (FIG. 6C).

Sequence of Cdc42 (P60953 whole entry): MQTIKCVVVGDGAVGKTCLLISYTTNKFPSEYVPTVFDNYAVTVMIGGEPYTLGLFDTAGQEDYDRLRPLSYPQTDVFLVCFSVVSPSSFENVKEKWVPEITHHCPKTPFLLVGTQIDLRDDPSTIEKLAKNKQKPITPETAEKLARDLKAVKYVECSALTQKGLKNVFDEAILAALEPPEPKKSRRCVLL

In the case of `N[C@H](Cc1c[nH]c2ccccc12)C(=O)N/N=C/c1ccc2nccnc2c1` [Rhosin, reference compound], on Cdc42, the “Cdc42 activity (Cdc42-GTP)” value is reported as “inhibited Cdc42”. Besides, the “working concentration (anticancer efficacy)” value in assay [1] is no less than 30 µM. As to `C#CCOc1cccc2oc(C3=NN(C(=O)CCl)C(c4ccco4)C3)cc12` (stereo not drawn) [CL16-alkyne], at FLAG-RhoA, the “probe labeling of FLAG-RhoA (in-gel fluorescence)” value is “strong fluorescence from FLAG-RhoA protein”.

Values taken from patent US20250073209A1, “COVALENT TARGETING OF RhoA FOR CANCER THERAPY” (The University of Hong Kong, priority 2023, published 2025).
